Patent publication US20040235761A1, “Novel virus proliferaton inhibition/virucidal method and novel pyradine nucleotide/pyradine nucleoside analogue” (priority 2001, published 2004)
Where two headings read alike, the source gives them in different places.

Assays:
[1] = molecular target: Inosine monophosphate dehydrogenase (IMPDH); experiment: Inosine monophosphate dehydrogenase (IMPDH) inhibition test; assay type: biochemical; conditions: IMPDH enzyme solution from MDCK cell homogenate, 37° C., 1 hour; read-out: 50% inhibition concentration
Method: MDCK cells monolayer-cultured on a culture plate were suspended in 0.05 M Tris-HCl (pH 8.0), and the suspension was homogenated with a Downs homogenizer to obtain a cell homogenate. The cell homogenate was centrifuged at 16000×g, and the thus obtained supernatant was used as an IMPDH enzyme solution.
As reaction compositions, 0.1 M Tris-HCl (pH 8.0), 0.1 M KCl, 30 mM EDTA, 5 mM NAD, 5 mg/mL bovine serum albumin, and 0.04 mM [8-^14C]-inosine 5′-monophosphate were used. After completion of reaction at 37° C. for 1 hour, 2 volumes of acetonitrile were added to terminate the reaction, and the reaction product was concentrated. The obtained concentrate was analyzed under the HPLC conditions indicated below. The ratio between the reaction substrate ([^14C]-inosine 5′-monophosphate) and the reaction product ([^14C]-xanthosine 5′-monophosphate) was obtained, and the reaction rate was calculated. Ribavirin monophosphate was used as a control compound.

[2] = test system: bovine diarrhea virus (BVDV) NADL; experiment: Anti-BVDV effect (plaque inhibition in MDBK cells); assay type: cell-based; conditions: Bovine viral diarrhea virus isolates and strains, 72 h, 100 μg/mL test compound, 70 PFU/well, 3 days, read-out: Inhibition rate (plaque inhibition rate)
Method: MDBK cells that had fully grown in a 6-well culture plate were infected with bovine diarrhea virus (BVDV) NADL at 70 PFU/well. After 60 minutes, the infection solution was removed, and a test culture solution (E′-MEM) containing 5% horse serum and 1% agar (SeaPlaque Agar) that contained a 100 μg/mL test compound was added thereto. The mixture was fully solidified and then cultured for 3 days under conditions of 37° C., a humidity of 100% and 5% CO2. After completion of the culture, the test plate was fixed with a 3% formaldehyde solution, and the agar medium was removed with running water, followed by staining with a 1% crystal violet solution, so as to count the number of plaques. The plaque inhibition rate was expressed by the percentage obtained by comparing with a control to which no test compounds were added.

[3] = test system: influenza virus A/PR/8/34; experiment: Anti-influenza effect (plaque inhibition in MDCK cells); assay type: cell-based; conditions: PR/8, MDCK, 72 h, read-out: Inhibition rate (plaque inhibition rate)
[4] = molecular target: T1, Influenza virus polymerase (crude enzyme from virus particles) (Influenza A virus, UniProt P03431); experiment: Polymerase inhibition test (influenza virus); assay type: biochemical; conditions: 30° C., 60 minutes, 32P-GTP incorporation, read-out: 50% inhibition concentration
T1 construct: these particles were used as polymerase crude enzymes; from tissue; host or cells: influenza virus particles lysed with Triton N101/LPC (crude enzyme)
Method: Influenza virus particles were treated with a dissolving solution (100 mM Tris-HCl (pH 8), 100 mM KCl, 5 mM MgCl2, 1.5 mM DTT, 5% glycerol, 1.5% Triton N101, 1% LPC), and these particles were used as polymerase crude enzymes. Each of the test compounds with different concentrations was added to a reaction buffer (100 mM Tris-HCl (pH 8.0), 100 mM KCl, 5 mM MgCl2, 1 mM DTT, 0.25% Triton N101, 0.25 mM ApG, 0.1 mM ATP, 0.05 mM CTP, 0.05 mM UTP, 0.0005 mM GTP, ^32P-GTP, crude enzyme), followed by incubation at 30° C. for 60 minutes. Thereafter, 10% trichloroacetic acid (TCA) was added thereto, and the mixture was retained on ice for 60 minutes. Thereafter, it was dropped on a GF/C filter, and the filter was then washed with 5% TCA. The filter was dried, and scintillation cocktail was added thereto. The radioactivity was determined using a liquid scintillation counter. The measurement value was given as a 50% inhibition concentration, providing that a group in which no test compounds were added was defined as 100%.

[5] = molecular target: T2, HCV polymerase (NS5B region of hepatitis C virus) (Hepatitis C virus genotype 1a, UniProt P27958); experiment: Polymerase inhibition test (hepatitis C virus); assay type: biochemical
T2 construct: The NS5B region of hepatitis C virus was produced in Escherichia coli; made in house; host or cells: Escherichia coli
Method: The NS5B region of hepatitis C virus was produced in Escherichia coli, and it was used as HCV polymerase for the test. The sequence of the 3′-region of HCV was prepared by the in vitro transcription method, and it was used as an RNA template for the test.
Each of the test compounds with different concentrations was added to a reaction buffer (20 mM Tris-HCl (pH 8.0), 0.05 mM MnCl2, 1 mM DTT, 20 units RNase inhibitor, [α-^32P]GTP, 0.05 mM each of ATP, CTP and UTP, and 2 μg/mL RNA template), followed by incubation at 30° C. for 2 hours. Thereafter, 10% TCA was added to terminate the reaction. Thereafter, the reaction solution was dropped on a DE81 filter, and the filter was then washed with 5% TCA. The filter was dried, and scintillation cocktail was added thereto. The radioactivity was determined using a liquid scintillation counter. The measurement value was given as a 50% inhibition concentration, providing that a group in which no test compounds were added was defined as 100%.

[6] = molecular target: human RNA polymerase (Hela cell nucleus extract) (Homo sapiens, UniProt P24928+P30876); experiment: Human RNA polymerase inhibition test; assay type: biochemical; conditions: 30° C., 1 hour, read-out: 50% inhibition concentration
Method: A Hela cell nucleus extract (Promega) was used as human RNA polymerase for the test. The pCMP script was cleaved with restriction enzymes and then purified, and it was used as a DNA template for the test.
Each of the test compounds with different concentrations was added to a reaction buffer (Hela cell nucleus extract, 3 mM MgCl2, 0.4 mM each of ATP, UTP and CTP, 0.016 mM GTP, 16 μg/mL DNA template, 0.4 mCi/mL [α-^32P]GTP), followed by incubation at 30° C. for 1 hour. After completion of the reaction, the reaction solution was dropped on a DE81 filter, and the filter was then washed with 5% Na2HPO4 solution 3 times for 30 minutes, and then with distilled water once for 1 minute. The filter was dried, and scintillation cocktail was added thereto. The radioactivity was determined using a liquid scintillation counter. The measurement value was given as a 50% inhibition concentration, providing that a group in which no test compounds were added was defined as 100%.

[7] = NS5B produced in Escherichia coli, 30° C., 2 hours, read-out: 50% inhibition concentration

Work on `NC(=O)c1ncn([C@@H]2O[C@H](COP(=O)(O)O)[C@@H](O)[C@H]2O)n1` [Control compound, Ribavirin monophosphate, reference compound] yielded an IC50 [1] of 1900 nM.
`CC(C)(C)C(=O)SCCOP(=O)(OCCSC(=O)C(C)(C)C)OC[C@H]1O[C@@H](n2cc(Cl)nc(C(N)=O)c2=O)[C@H](O)[C@@H]1O` [Example 4, 2,2-dimethyl-thiopropionic acid S-(2-{[(2R,3S,4R,5R)-5-(3-carbamoyl-5-chloro-2-oxo-2H-pyrazine-1-yl)-3,4-dihydroxy-tetrahydro-furan-2-ylmethoxy]-[2-(2,2-dimethyl-propionylsulfanyl)-ethoxy]-phosphoryloxy]-ethyl) ester] gave an inhibition at 100 µg/mL [2] of 68%.
Molecule `CC(C)(C)C(=O)OCOP(=O)(OCOC(=O)C(C)(C)C)OC[C@H]1O[C@@H](n2ccnc(C(N)=O)c2=O)[C@H](O)[C@@H]1O` [Example 6, 2,2-dimethyl-propionic acid[(2R,3S,4R,5R)-5-(3-carbamoyl-2-oxo-2H-pyrazine-1-yl)-3,4-dihydroxy-tetrahydro-furan-2-ylmethoxy]-(2,2-dimethyl-propionyloxymethoxy)-phosphoryloxymethyl ester] has an inhibition at 100 µg/mL [2] of 57% and an inhibition at 100 µg/mL [3] of 100%.
For `Cc1cn([C@@H]2O[C@H](CO)[C@@H](O)[C@H]2O)c(=O)c(C(N)=O)n1` [Example 11, 4-[(2R,3R,4S,5R)-3,4-dihydroxy-5-(hydroxymethyl)tetrahydro-2-furanyl]-6-methyl-3-oxo-3,4-dihydro-2-pyrazinecarboxamide], the inhibition at 100 µg/mL [3] was 24%.
Molecule `CC(=O)OC[C@H]1O[C@@H](n2ccnc(C(N)=O)c2=O)[C@H](OC(C)=O)[C@@H]1OC(C)=O` [Example 22, (2R,3R,4R,5R)-4-(acetyloxy)-2-[(acetyloxy)methyl]-5-[3-(aminocarbonyl)-2-oxo-1(2H)-pyrazinyl]tetrahydro-3-furanyl acetate] has an inhibition at 100 µg/mL [3] of 33%.
For `CC(=O)OC[C@H]1O[C@@H](n2cc(F)nc(C(N)=O)c2=O)[C@H](OC(C)=O)[C@@H]1OC(C)=O` [Example 31, (2R,3R,4R, 5R)-4-(acetyloxy)-2-[(acetyloxy)methyl]-5-[3-(aminocarbonyl)-5-fluoro-2-oxo-1(2H)-pyrazinyl] tetrahydro-3-furanyl acetate], the inhibition at 100 µg/mL [3] was 44%.
`NC(=O)c1nc(F)cn([C@@H]2O[C@H](CO)[C@@H](O)[C@H]2O)c1=O` [Example 32, 4-[(2R,3R,4S,5R)-3,4-dihydroxy-5-(hydroxymethyl)tetrahydro-2-furanyl]-6-fluoro-3-oxo-3,4-dihydro-2-pyrazinecarboxamide] gave an inhibition at 100 µg/mL [2] of 100% and an inhibition at 100 µg/mL [3] of 100%.
For `NC(=O)c1nc(F)cn([C@@H]2O[C@H](COP(=O)(O)O)[C@@H](O)[C@H]2O)c1=O` [Example 37, [(2R,3S,4R,5R)-5-[3-(aminocarbonyl)-5-fluoro-2-oxo-1(2H)-pyrazinyl]-3,4-dihydroxytetrahydro-2-furanyl]methyl phosphate], the IC50 [1] was 740000 nM.
`NC(=O)c1nc(Cl)cn([C@@H]2O[C@H](CO)[C@@H](O)[C@H]2O)c1=O` [Reference Example 7, 6-chloro-4-[(2R,3R,4S,5R)-3,4-dihydroxy-5-(hydroxymethyl)tetrahydro-2-furanyl]-3-oxo-3,4-dihydro-2-pyrazinecarboxamide] showed an inhibition at 100 µg/mL [3] of 42%.
`CC(=O)O[C@@H]1[C@H](OC(C)=O)[C@@H](CO)O[C@H]1n1cc(F)nc(C(N)=O)c1=O` [Reference Example 12, (2R,3R,4R,5R)-4-(acetyloxy)-2-[3-(aminocarbonyl)-5-fluoro-2-oxo-1(2H)-pyrazinyl]-5-(hydroxymethyl)tetrahydro-3-furanyl acetate] was tested, and the inhibition at 100 µg/mL [3] was 78%.
`NC(=O)c1nc(F)cn([C@@H]2O[C@H](COP(=O)(O)OP(=O)(O)OP(=O)(O)O)[C@@H](O)[C@H]2O)c1=O` [Reference Example 16, [[2R,3S,4R,5R]-5-[3-(aminocarbonyl)-5-fluoro-2-oxo-1(2H)-pyrazinyl]-3,4-dihydroxytetrahydro-2-furanyl]methyl triphosphate] was tested, and the IC50 [4] was 140 nM and the IC50 [5, 7] was 750 nM.
`NC(=O)c1nc(Cl)cn([C@@H]2O[C@H](COP(=O)(O)OP(=O)(O)OP(=O)(O)O)[C@@H](O)[C@H]2O)c1=O` [Reference Example 17, {(2R,3S,4R,5R)-5-[3-(aminocarbonyl)-5-chloro-2-oxo-1(2H)-pyrazinyl]-3,4-dihydroxytetrahydro-2-furanyl}methyl triphosphate] was tested, and the IC50 [4] was 330 nM and the IC50 [5, 7] was 2700 nM.
In the case of `NC(=O)c1nccn([C@@H]2O[C@H](COP(=O)(O)OP(=O)(O)OP(=O)(O)O)[C@@H](O)[C@H]2O)c1=O` [Reference Example 22, {(2R,3S,4R,5R)-5-[3-(aminocarbonyl)-2-oxo-1(2H)-pyrazinyl]-3,4-dihydroxytetrahydro-2-furanyl} methyl triphosphate], the IC50 [6] is reported as > 200000 nM, the IC50 [4] is reported as 76 nM and the IC50 [5, 7] is reported as 88 nM.
In the case of `Cc1cn([C@@H]2O[C@H](COP(=O)(O)OP(=O)(O)OP(=O)(O)O)[C@@H](O)[C@H]2O)c(=O)c(C(N)=O)n1` [Reference Example 23, {(2R,3S,4R,5R)-5-[3-(aminocarbonyl)-5-methyl-2-oxo-1(2H)-pyrazinyl]-3,4-dihydroxytetrahydro-2-furanyl}methyl triphosphate], the IC50 [4] is reported as 250 nM and the IC50 [5] is reported as 2200 nM.
`NC(=O)c1nccn([C@@H]2O[C@H](COP(=O)(O)OP(=O)(O)OP(=O)(O)O)C[C@H]2O)c1=O` [Reference Example 25, {(2S,4R,5R)-5-[3-(aminocarbonyl)-2-oxo-1(2H)-pyrazinyl]-4-hydroxytetrahydro-2-furanyl} methyl triphosphate] was tested, and the IC50 [6] was > 200000 nM, the IC50 [4] was 28000 nM and the IC50 [5, 7] was 1600 nM.
Work on `NC(=O)c1nccn([C@@H]2O[C@H](COP(=O)(O)O)[C@@H](O)[C@H]2O)c1=O` [Reference Example 30, {(2R,3S,4R,5R)-5-[3-(aminocarbonyl)-2-oxo-1(2H)-pyrazinyl]-3,4-dihydroxytetrahydro-2-furanyl}methyl phosphate] yielded an IC50 [1] of 980000 nM.
